From patent US6586006B2, “Solid delivery systems for controlled release of molecules incorporated therein and methods of making same” (Elan Drug Delivery Limited, priority 1994, dated 2003)
Each block holds one compound with its values, some of them ahead of it.

Experiments:
Assay type in all cases: physicochemical
[1] = Phycoerythrin fluorescence (functional activity) after solvents, heat or processing
Protocol: Glasses were formed by drying 20% solutions of either trehalose, lactitol, palatinit or GPS, containing MWPB and 1 mg/ml of the fluorescent algal protein phycoerythrin under vacuum (80 mTorr) for 16 hrs. The glasses were ground in a domestic coffee mill to yield a coarse powder which was used to fill the spinning head of a Kando K1 Kandy Floss cotton candy machine (GB Patent No. 1533012). The motor was then switched on and the powdered sugar glass heated at element settings between 5 and 9. Residence time in the spinning head was 2-10 min and a continuous process was maintained by constantly topping up the head.
A 400 μg/ml phycoerythrin solution was freeze-dried in a Labconco freeze-drier with or without 20% trehalose. The dried protein powder was exposed to a number of organic solvents for 72 hrs.
A 400 μg/ml phycoerythrin solution was freeze-dried in the FTS drier with or without 20% trehalose. […]

[2] = Glass transition temperature (Tg) by thermal analysis (DSC)
Excerpt: In general, the tendency to crystallize, from a cooling melt or with reducing solvent, is low. Both devitrification and the fluidity of the melt at temperatures close to Tg, can be controlled by modifiers such as other derivative sugars and certain organic actives. The following two tables, generated as described in the Examples presented below, provide Tg and melting temperature data for a variety of HDCs suitable for use, either alone, or in a composite glass, herein.
Dissolution of synthetic corticosteroid XPDO (described below) into a TOAC melt and quenching to form the vitreous solid dose delivery system was achieved. By looking at the release of MB9 into aqueous solution, these experiments tested the compatibility of the steroid within the glass, subsequent recovery of the steroid and studied the effect that XPDO has on the properties of the delivery system formed looking at the release of MB9 into aqueous solution. TOAC (3.21 g) was pre-melted at 150° C., before being quenched to glass. The glass was finely ground with XPDO (0.15 g) before being remelted. The clear melt was again quenched to yield the composite HDC/active glass. Thermal analysis was carried out on a Rheometric Scientific Differential Scanning Calorimeter (DSC) at a heating rate of 10°/min under a nitrogen atmosphere. The following samples were prepared:
Studies were performed using the synthetic corticosteroid XPDO dissolved in DCM. The solution was spray dried in a Buchi B-191 spray drier, using an inlet temperature of 40° C. […] XPDO was incorporated at 20 wt %. The powder was completely amorphous as confirmed by thermal analysis (Tg=46° C.).

[3] = Resistance of glasses to devitrification on exposure to relative humidity
Protocol: Glasses were made by evaporating DCM on a hotplate set at 65° C. from a 25% solutions of TOAC (50% solutions often deposited crystals in the pipette tip). Drying was carried out for 2 hr to be certain of complete dryness. Uniform glasses were produced by using an Eppendorf-type pipette to deliver 100 μl to a slide recently placed on the hotplate and then removing about 50 μl by using the clear/expel volume of the pipette.
XPDO was therefore incorporated into a TOAC glass by dissolving both crystalline TOAC and XPDO in DCM and evaporating the solvent at 70° C. on a hotplate. XPDO was used in proportions of 10% and 20% of total solids in the final TOAC glass.
The resulting glasses were tested for their utility as controlled release matrices in two ways. First, they were assessed for their ability to resist devitrification on exposure to high RH at RT. Second, they were immersed in water or phosphate-buffered saline (PBS) to study their solubility and rate of erosion by surface recrystallization.

[4] = Water resistance and dye release of carboxylate, HDC or plastic coated/coformulated systems
Protocol: These particles were coated by adding them to a saturated solution of zinc palmitate (ZnC16) in toluene and cooling from 60° C. to 30° C. This deposited a layer of ZnC16 on the particles which were then filtered under vacuum to remove the excess ZnC16, washed with acetone and air-dried.
A fine amorphous film (100-200 μm thickness) was formed by casting on silicate glass slides and evaporating off the solvent in a warm air-stream.
Amorphous films were also formed from calcium neodecanoate dissolved in chloroform (0.5 g/10 ml) as described above.
Films of glucose glass incorporating 1 wt % MB9 were formulated by quenching from the melt. These films were coated with thin (100 μm thickness) amorphous metal carboxylate films by evaporation of solution of the carboxylate in chloroform (0.5 g/10 ml). The metal carboxylates used were aluminum hexanoate and octanoate, calcium neodecanoate and magnesium isostearate and neodecanoate. Dissolution of the films was monitored by release of dye into distilled water.

[5] = Enzyme activity after exposure to acetone, dried with or without trehalose; details: dried with 50% trehalose versus without, FIGS. 5A and 5B
Protocol: A 0.1 mg/ml horseradish peroxidase solution or a 1 mg/ml alkaline phosphatase/4 mg/ml bovine serum albumin solution was dried in an FTS Systems freeze drier with or without 50% trehalose. The drier was used as a vacuum drier and the mixtures dried without freezing. Four times the volume of solvent was added and the solution was allowed to evaporate to dryness. The contents were redissolved in 5 milliliters of water, and enzyme activity was assessed, in serial dilution, by commercial ‘kit’ reagents.

[6] = Weight loss and dye release of glucose pentaacetate glass discs in water
Protocol: Another glass disc of similar dimensions was prepared from α-D-glucose pentaacetate and placed in 1 l of water, which was replaced daily. After 7 days, the glass had lost 20% of its original weight. The release rate of the dye was higher in the first day as the release happened mainly from the surface of the glass disc.

[7] = Controlled release of encapsulated MB9 dye from HDC glass beads/discs; details: FIG. 11
Protocol: In the following experiments, the delivery system was preformulated, whether as a single material, or as a mixed composition. This was carried out by intimately grinding the component HDCs together, followed by careful, controlled melting in a furnace, between 120-140° C. and with normal atmosphere to form melts. The melts were quenched to glass by pouring over a brass block. This glass was then finely ground.
MB9 dye (1 or 5 wt %) was mixed with the ground glass prior to re-melting at 140° C. The melt was quenched to form small glass beads (2.5 mm diameter) which were used in controlled release experiments.
Controlled release of encapsulated dye was monitored by suspending three such beads in 25 or 50 ml of deionized water or PBS solution at ambient temperatures (27-30° C.) or at 37° C., as indicated. The media were undisturbed, except for periodic stirring and were replaced at set intervals with fresh media (generally at 72 hr intervals). Both single HDC glasses and composite HDC glasses were formed. […] The use of other HDCs as glass modifiers in the composite HDC formulations enable the tailoring of the glasses formed to yield the release characteristics desired.
In FIG. 8, the results were obtained from TOAC glass discs (6 mm×2.5 mm) with MB9 dye evenly dispersed therein at 2 wt %. Release was controlled at 25° C. with gentle stirring and media changes at regular intervals. Note the linear release of MB9 dye over a 55 day period. The results presented in FIG. 8 indicate that a pure HDC vitreous delivery vehicle system gives zero-order release rates of guest substances. The results presented in FIGS. 9-14 show variation on release rates by changing the ratios of different HDCs in the delivery systems, changing the carbohydrate backbone length and by changing the nature of the derivative on the carbohydrate backbone. In each instance it is clear that the HDC delivery systems allow a wide range of release rates that can be tailored to the guest substance and the delivery thereof.

[8] = freeze-dried powder in pyridine

Compound: phycoerythrin
fluorescence after exposure to organic solvent ([1]; dimethylsulfoxide, powder solubilized): remained fluorescent
functional activity after storage at 100° C. ([1]; dried in trehalose, one month): no detectable loss of functional activity
time by which fluorescence was lost [1, 8]: ≤ 72 h
time fluorescence remained [1, 8]: 24 to 48 h
fluorescence after exposure to organic solvent ([1]; freeze-dried with 20% trehalose, acetone, acetonitrile chloroform and methanol, 72 hrs): remained fluorescent
biological activity as assessed by fluorescence ([1]; in spun sugar glass microneedles): retention of biological activity
biological functionality by ability to fluoresce ([1]; trehalose glass powder co-melted into carboxylate glass at 95° C.): retained its biological functionality
fluorescence in carboxylate glass formed by evaporation ([1]; trehalose glass powder in 1:1 sodium octanoate/zinc ethylhexanoate, chloroform): remained fluorescent
fluorescence in perspex block ([1]; trehalose glass powder in perspex from chloroform): remained fluorescent

Tg/° C. ([2]; single HDC glasses (Table 1)): 25 °C
Compound: CC(=O)OC[C@H]1O[C@@](COC(C)=O)(O[C@H]2O[C@H](COC(C)=O)[C@@H](OC(C)=O)[C@H](OC(C)=O)[C@H]2OC(C)=O)[C@@H](OC(C)=O)[C@@H]1OC(C)=O [SOAC, sucrose octaacetate]

Tg/° C. ([2]; single HDC glasses (Table 1)): 3 °C
Compound: CCC(=O)OCC1OC(OC2OC(COC(=O)CC)C(OC(=O)CC)C(OC(=O)CC)C2OC(=O)CC)C(OC(=O)CC)C(OC(=O)CC)C1OC(=O)CC (stereo not shown) [TOPR, trehalose octapropanoate]
devitrification at RH from 75% to 95% ([3]; thin glass films and quenched disks, RT, overnight exposure): very susceptible to devitrification at high RH

Compound: zinc palmitate [ZnC16]
wetting of coated powder in water ([4]; spray-dried trehalose/calcium lactate/MB9 particles coated with ZnC16): remained unwetted in water for at least three days

Compound: horseradish peroxidase
resistance of enzyme activity to acetone [5]: more resistant to acetone

Compound: magnesium isostearate
delay of dye release ([4]; glucose glass film with 1 wt % MB9 coated with 100 μm metal carboxylate film, distilled water): 10 days

Tg/° C. ([2]; single HDC glasses (Table 1)): −10 °C
Compound: CCCCCCCCO[C@@H]1O[C@H](COC(C)=O)[C@@H](OC(C)=O)[C@H](OC(C)=O)[C@H]1OC(C)=O [OGTA, 1-0-Octyl-β-D-glucose tetraacetate]

Tg/° C. ([2]; single HDC glasses (Table 1)): 65 °C
Compound: CC(=O)OC[C@H]1O[C@@H](O[C@H]2[C@H](OC(C)=O)[C@@H](OC(C)=O)C(OC(C)=O)O[C@@H]2COC(C)=O)[C@H](OC(C)=O)[C@@H](OC(C)=O)[C@@H]1OC(C)=O (stereo partly shown) [COAC, cellobiose octaacetate]

Compound: calcium neodecanoate
dye release relative to film dissolution ([4]; film with MB9 in distilled water, 24 hr, Ca2+ by atomic adsorption spectroscopy): followed the dissolution of the films

Compound: alkaline phosphatase
resistance of enzyme activity to acetone [5]: more resistant to acetone

Compound: Aluminum hexanoate
devitrification of film during dye release ([4]; 100-200 μm film, 1 wt % MB9, distilled water, 5 hr): No devitrification

Tg/° C. ([2]; single HDC glasses (Table 1)): 14 °C
loss of original weight ([6]; glass disc in 1 l of water replaced daily, after 7 days): 20%
rate of release of encapsulated Acid Blue dye ([6]; glass disc in water, FIG. 7): quite constant
Compound: CC(=O)OC[C@H]1O[C@H](OC(C)=O)[C@H](OC(C)=O)[C@@H](OC(C)=O)[C@@H]1OC(C)=O [α-GPAC, α-glucose pentaacetate]

Tg/° C. ([2]; single HDC glasses (Table 1)): 17 °C
solubility of glass in water [6]: poorly soluble in water
loss of original weight ([6]; glass disc 20 mm diameter, 2.5 mm thick, flowing water, 10 days): about 33%
Compound: CC(=O)OC[C@H]1O[C@@H](OC(C)=O)[C@H](OC(C)=O)[C@@H](OC(C)=O)[C@@H]1OC(C)=O [β-GPAC, β-glucose pentaacetate]

Compound: OC[C@H]1O[C@H](O[C@H]2O[C@H](CO)[C@@H](O)[C@H](O)[C@H]2O)[C@H](O)[C@@H](O)[C@@H]1O [Trehalose, α-D-glucopyranosyl-α-D-glucopyranoside]
recrystallization of glass on storage ([3]; trehalose glass from evaporating water from 50% trehalose solution): gradually recrystallized over a period of several weeks

Tg/° C. ([2]; single HDC glasses (Table 1)): 55 °C
Tg/° C. ([2]; single and composite HDC glasses, mole ratios of HDCs in glass (Table 2)): 55 °C
MB9 release profile ([7]; TOAC/RUDA glass spheres into PBS): biphasic release rate
initial fast release of MB9 dye ([7]; glass spheres into PBS, in 5 days): about 60%
Compound: CC(=O)OCC1OC(OCC2OC(OC3(COC(C)=O)OC(COC(C)=O)C(OC(C)=O)C3OC(C)=O)C(OC(C)=O)C(OC(C)=O)C2OC(C)=O)C(OC(C)=O)C(OC(C)=O)C1OC(C)=O (stereo not shown) [RUDA, raffinose undecaacetate]
